Measurements from patent publication US10383861B2, “3-(1H-pyrrolo[2,3-C]pyridin-2-yl)-1H-pyrazolo[3,4-C]pyridines and therapeutic uses thereof” (Samumed, LLC, priority 2015, dated 2019).

Experiments:
Assay type in all cases: cell-based
[1] = system: IL-6; experiment: IL-6 inhibition in LPS-stimulated THP-1 cells (HTRF); settings: Homo sapiens; for inhibition at 10 µM: THP-1, read-out: percent inhibition at 10 μM; for EC50: THP-1 cells, LPS 500 ng/mL, 22 hours, IL6 HTRF
Description: THP-1 cells were cultured in basal media with 1% FBS for 24 hours before the start of the assay. […] THP-1 cells were plated at 5000 cells/well in the 384-well plates and incubated at 37° C. for 2 h. 500 ng/mL of LPS was added after 2 hours and cells were incubated for another 22 hours at 37° C. Plates were spun in a centrifuge for 1 minute at […] and a mixture of anti-IL6 XL665, and anti-IL6 Cryptate diluted in reconstitution buffer (Cisbio Inc.) was added to each well. Following incubation for 3 hrs at room temperature, Homogeneous Time-Resolved Fluorescence (HTRF) was measured using the Envision (Perkin Elmer) at 665 nm and […]. The ratio of fluorescence at 665 nm to 620 nm was used as a readout for IL6 quantification. All samples were processed in duplicate. Readings were normalized to DMSO treated cells and normalized activities were utilized for EC50 calculations using the dose-response log (inhibitor) vs. response -variable slope (four parameters) nonlinear regression feature available in GraphPad Prism 5.0 (or Dotmatics).

[2] = system: SW480 colon cancer cells; experiment: Cell viability assay (CellTiter-Blue) in SW480 colon cancer cells; settings: Homo sapiens; for EC50: 96 h, SW480 cell viability, four days, CellTiter-Blue; for inhibition at 10 µM: SW480, read-out: percent inhibition at 10 μM
Description: Representative compounds were screened using the following assay procedure to assess the effect on cell viability as described below.
Approximately 2×10^3 SW480 colon cancer cells were seeded into each well and allowed to incubate in the presence or absence of compound for four days at 37° C./5% CO2. Eight replicates of DMSO-treated cells served as controls and cells treated with compound were performed in duplicate.
After incubation, 20 μL of CellTiter-Blue (Promega) was added to each well allowed to incubate for approximately 3 hours. This reagent was a buffered solution which contains resazurin, metabolically active cells were able to reduce rezarurin (blue) into resorufin (pink) which was highly fluorescent. This measured fluorescence was used as a readout for cell viability.

[3] = system: primary human fibroblasts derived from IPF patients (LL29 cells); experiment: Inhibition of the fibrotic process: αSMA staining in TGF-β1 treated LL29 fibroblasts; settings: Fibroblast; for EC50: 96 h, LL29 cells, TGF-β1 20 ng/mL, 4 days, % αSMA positive cells; for inhibition at 10 µM: read-out: percent inhibition at 10 μM
Description: Representative compounds were screened using primary human fibroblasts (derived from IPF patients) treated with TGF-β1 to determine their ability to inhibit the fibrotic process.
LL29 cells are plated at 1,500 cells/well in 80 μL/well F12 medium supplemented with 1% Fetal Bovine Serum. […] Wells treated with TGF-β1 and containing DMSO were used as controls. […] Following incubation for 4 days, SYTOX green nucleic acid stain (Life Technologies [Thermo Fisher Scientific]) was added to the wells at a final concentration of 1 μM and incubated at room temperature for 30 min.

[4] = system: Wnt activity; experiment: Wnt activity screening assay, Sp5-Luc reporter gene in SW480 cells; settings: Homo sapiens; for inhibition at 10 µM: SW480, read-out: percent inhibition at 10 μM; for EC50: Sp5-Luc reporter, SW480 cells, overnight incubation
Excerpt: The screening assay for Wnt activity is described as follows. Reporter cell lines can be generated by stably transducing cancer cell lines (e.g., colon cancer) or primary cells (e.g., IEC-6 intestinal cells) with a lentiviral construct that includes a Wnt-responsive promoter driving expression of the firefly luciferase gene.
SW480 colon carcinoma cells were transduced with a lentiviral vector expressing luciferase with a human Sp5 promoter consisting of a sequence of eight TCF/LEF binding sites. SW480 cells stably expressing the Sp5-Luc reporter gene and a hygromycin resistance gene were selected by treatment with 150 μg/mL of hygromycin for 7 days. These stably transduced SW480 cells were expanded in cell culture and used for all further screening activities. […] For Sp5-Luc reporter gene assays, the cells were plated at 4,000 cells/well in 384-well plates with medium containing 1% fetal bovine serum and incubated overnight at 37° C. and 5% CO2. Following incubation, 20 μl of BrightGlo luminescence reagent (Promega) was added to each well of the 384-well assay plates. The plates were placed on an orbital shaker for 2 min and then luminescence was quantified using the Envision (Perkin Elmer) plate reader. Readings were normalized to DMSO only treated cells, and normalized activities were utilized for EC50 calculations using the dose-response log (inhibitor) vs. response -variable slope (four parameters) nonlinear regression feature available in GraphPad Prism 5.0 (or Dotmatics).

EC50 [1]	EC50 [2]	EC50 [4]	SMILES	inhibition at 10 µM [1]	inhibition at 10 µM [2]	EC50 [3]	inhibition at 10 µM [4]	inhibition at 10 µM [3]
> 10 µM	> 10 µM	> 10 µM	CC(C)CC(=O)Nc1cncc(-c2cc3c(-c4cc5c(-c6cccc(F)c6)cncc5[nH]4)n[nH]c3cn2)c1 [Compound 2, N-(5-(3-(4-(3-Fluorophenyl)-1 H-pyrrolo[2,3-c]pyridin-2-yl)-1 H-pyrazolo[3,4-c]pyridin-5-yl)pyridin-3-yl)-3-methylbutanamide]	37.2%	25.4%	2.23 µM	5.6%	
9.84 µM	1.26 µM	2.33 µM	CN(C)c1cncc(-c2cc3c(-c4cc5c(-c6cccc(F)c6)cncc5[nH]4)n[nH]c3cn2)c1 [Compound 7, 5-(3-(4-(3-Fluorophenyl)-1H-pyrrolo[2,3-c]pyridin-2-yl)-1H-pyrazolo[3,4-c]pyridin-5-yl)-N,N-dimethylpyridin-3-amine]			1.04 µM		
> 10 µM	> 10 µM	> 10 µM	CCC(=O)Nc1cncc(-c2cc3c(-c4cc5c(-c6ccc(F)cc6)cncc5[nH]4)n[nH]c3cn2)c1 [Compound 29, N-(5-(3-(4-(4-Fluorophenyl)-1H-pyrrolo[2,3-c]pyridin-2-yl)-1H-pyrazolo[3,4-c]pyridin-5-yl)pyridin-3-yl)propionamide]	43%	29.6%	> 10 µM	37.8%	49.1%
4.58 µM	1.09 µM	1.84 µM	Cc1ccncc1-c1cc2c(-c3cc4c(-c5ccc(F)cc5)cncc4[nH]3)n[nH]c2cn1 [Compound 33, 3-(4-(4-Fluorophenyl)-1H-pyrrolo[2,3-c]pyridin-2-yl)-5-(4-methylpyridin-3-yl)-1H-pyrazolo[3,4-c]pyridine]			0.333 µM		
> 10 µM	1.1 µM	1.59 µM	CC(C)(C)C(=O)Nc1cncc(-c2cc3c(-c4cc5c(-c6ccc(F)cc6)cncc5[nH]4)n[nH]c3cn2)c1 [Compound 36, N-(5-(3-(4-(4-Fluorophenyl)-1H-pyrrolo[2,3-c]pyridin-2-yl)-1H-pyrazolo[3,4-c]pyridin-5-yl)pyridin-3-yl)pivalamide]	29.6%		0.299 µM		
2.47 µM	1.29 µM	0.937 µM	CC(C)Nc1cncc(-c2cc3c(-c4cc5c(-c6ccc(F)cc6)cncc5[nH]4)n[nH]c3cn2)c1 [Compound 40, 5-(3-(4-(4-Fluorophenyl)-1H-pyrrolo[2,3-c]pyridin-2-yl)-1H-pyrazolo[3,4-c]pyridin-5-yl)-N-isopropylpyridin-3-amine]			0.141 µM		
> 10 µM	3.51 µM	0.679 µM	CC(C)(C)CC(=O)Nc1cncc(-c2cc3c(-c4cc5c(-c6ccc(F)cc6)cncc5[nH]4)n[nH]c3cn2)c1 [Compound 44, N-(5-(3-(4-(4-Fluorophenyl)-1H-pyrrolo[2,3-c]pyridin-2-yl)-1H-pyrazolo[3,4-c]pyridin-5-yl)pyridin-3-yl)-3,3-dimethylbutanamide]	16.2%		0.434 µM		
> 10 µM	> 10 µM	3.65 µM	O=C(Nc1cncc(-c2cc3c(-c4cc5c(-c6ccc(F)cc6)cncc5[nH]4)n[nH]c3cn2)c1)C1CCC1 [Compound 49, N-(5-(3-(4-(4-Fluorophenyl)-1H-pyrrolo[2,3-c]pyridin-2-yl)-1H-pyrazolo[3,4-c]pyridin-5-yl)pyridin-3-yl)cyclobutanecarboxamide]	42.5%	36%	3.04 µM		
0.805 µM	0.693 µM	0.975 µM	CC(C)(C)CC(=O)Nc1cncc(-c2cc3c(-c4cc5c(-c6ccccc6F)cncc5[nH]4)n[nH]c3cn2)c1 [Compound 72, N-(5-(3-(4-(2-Fluorophenyl)-1H-pyrrolo[2,3-c]pyridin-2-yl)-1H-pyrazolo[3,4-c]pyridin-5-yl)pyridin-3-yl)-3,3-dimethylbutanamide]			0.468 µM		
9.56 µM	1.73 µM	3.25 µM	O=C(Nc1cncc(-c2cc3c(-c4cc5c(-c6ccccc6F)cncc5[nH]4)n[nH]c3cn2)c1)C1CCCCC1 [Compound 79, N-(5-(3-(4-(2-Fluorophenyl)-1H-pyrrolo[2,3-c]pyridin-2-yl)-1H-pyrazolo[3,4-c]pyridin-5-yl)pyridin-3-yl)cyclohexanecarboxamide]			1.08 µM		
3.03 µM	1.29 µM	1.06 µM	Fc1ccccc1-c1cncc2[nH]c(-c3n[nH]c4cnc(-c5ccccn5)cc34)cc12 [Compound 84, 3-(4-(2-Fluorophenyl)-1H-pyrrolo[2,3-c]pyridin-2-yl)-5-(pyridin-2-yl)-1H-pyrazolo[3,4-c]pyridine]			1.39 µM		
3.05 µM	> 10 µM	> 10 µM	O=C(Cc1ccccc1)Nc1cncc(-c2cc3c(-c4cc5c(-c6cccnc6)cncc5[nH]4)n[nH]c3cn2)c1 [Compound 94, 2-Phenyl-N-(5-(3-(4-(pyridin-3-yl)-1H-pyrrolo[2,3-c]pyridin-2-yl)-1H-pyrazolo[3,4-c]pyridin-5-yl)pyridin-3-yl)acetamide]		28.9%	> 10 µM	12.2%	0%
3.15 µM	> 10 µM	0.94 µM	CC(C)Nc1cncc(-c2cc3c(-c4cc5c(-c6cccnc6)cncc5[nH]4)n[nH]c3cn2)c1 [Compound 96, N-Isopropyl-5-(3-(4-(pyridin-3-yl)-1H-pyrrolo[2,3-c]pyridin-2-yl)-1H-pyrazolo[3,4-c]pyridin-5-yl)pyridin-3-amine]		25.2%	0.624 µM		
> 10 µM	> 10 µM	> 10 µM	CC(C)CC(=O)Nc1cncc(-c2cc3c(-c4cc5c(-c6ccncc6)cncc5[nH]4)n[nH]c3cn2)c1 [Compound 114, 3-Methyl-N-(5-(3-(4-(pyridin-4-yl)-1H-pyrrolo[2,3-c]pyridin-2-yl)-1H-pyrazolo[3,4-c]pyridin-5-yl)pyridin-3-yl)butanamide]	11.6%	14.2%	> 10 µM	15.1%	23%
> 10 µM	> 10 µM	> 10 µM	O=C(Nc1cncc(-c2cc3c(-c4cc5c(-c6ccncc6)cncc5[nH]4)n[nH]c3cn2)c1)c1ccccc1 [Compound 123, N-(5-(3-(4-(Pyridin-4-yl)-1H-pyrrolo[2,3-c]pyridin-2-yl)-1H-pyrazolo[3,4-c]pyridin-5-yl)pyridin-3-yl)benzamide]	19%	20.9%	> 10 µM	8%	53.6%
> 10 µM	> 10 µM	> 10 µM	CCCCC(=O)Nc1cncc(-c2cc3c(-c4cc5c(-c6ccncc6)cncc5[nH]4)n[nH]c3cn2)c1 [Compound 131, N-(5-(3-(4-(Pyridin-4-yl)-1H-pyrrolo[2,3-c]pyridin-2-yl)-1H-pyrazolo[3,4-c]pyridin-5-yl)pyridin-3-yl)pentanamide]	20.6%	17.8%	> 10 µM	13.1%	8.3%
